Measured values reported in patent US8383816B2, “Aryl-quinolyl compounds and their use” (Cancer Research Technology Limited, priority 2008, dated 2013).

Experiments:
[1] = molecular target: B-RAF (Homo sapiens, UniProt P15056, V600E); test: DELFIA Kinase Assay; type: biochemical; conditions: 100 μM ATP
Procedure: Biological Methods—DELFIA Kinase Assay
Compounds were assessed by a kinase assay performed according to the following protocol.
DELFIA Kinase Buffer (DKB):
DKB1 (DKB with B-RAF and MEK Protein):
Combine 4950 μL of DKB and 50 μL of 2.5 mg/ml GST-MEK stock (to give […] of MEK per 40 μL). Then add 22.5 μL of B-RAF to give ˜0.2 μL of B-RAF per 40 μL.
DKB2 (DKB with MEK Protein):
Combine 4950 μL of DKB and 50 μL of 2.5 mg/ml GST-MEK stock (to give 1 mg of MEK per 40 μL). Use 500 μL of this for the blow out (BO) and the empty vector (EV) control.
100 mM stock, dilute to 500 μM to give 100 μM final concentration in assay.
Inhibitors (Test Compounds):
Phospho-MEK½ CST #9121S diluted 1:1000 in DELFIA assay buffer (AB). Preincubate antibody in the AB for 30 minutes at room temperature prior to use.
Anti-rabbit-Eur labelled secondary Perkin Elmer #AD0105 diluted 1:1000 in DELFIA assay buffer (AB). Preincubate antibody in the AB for 30 minutes at room temperature prior to use. (Primary and secondary antibodies were incubated together.)
1. Preblock wells with 5% milk in TBS for 1 hour.
2. Wash wells with 3× with 200 μL TBS.
3. Plate out 40 μL of DKB1 for all inhibitors (test compounds), DMSO control, and optionally other control compounds.
4. Plate out 40 μL of DKB2 for BO and EV wells.
5. Add inhibitors (test compounds) at 0.5 μL per well according to desired plate layout.
6. Add 0.5 μL DMSO to vehicle control wells.
7. Add 2 μL of B-RAF to BO and EV wells.
8. Pre-incubate with inhibitors (test compounds) for 10 minutes at room temperature with shaking.
9. Add 10 μL of 500 μM ATP stock, in DKB, to give 100 μM assay concentration.
10. Seal plates with TopSeal and incubate at room temperature with shaking for 45 minutes.
11. Wash plates 3× with 200 μL 0.1% Tween20/Water to terminate reaction.
12. Add 50 μL per well of antibody mix and incubate for 1 hour at room temperature with shaking.
13. Wash plates 3× with 200 μL 0.1% Tween20/Water.
14. Add 100 μL DELFIA enhancement solution per well, cover in foil, and incubate at room temperature for 30 minutes with shaking.
15. Read on Victor using Europium protocol.
(§1) Values for the blank (Empty Vector) are subtracted from all values. The DMSO controls are set as 100% activity and assay points (the response) are calculated as a percentage of the DMSO control. Data are plotted using Graphpad Prism software and a non-linear regression line is calculated using a variable slope sigmoidal dose-response equation (Y=Bottom+(Top−Bottom)/(1+10^((LogEC50−X)*HillSlope)) where X is the logarithm of concentration. Y is the response). The IC50 generated by this procedure is the concentration of the drug that produces a percentage control fluorescence value midway between the saturation, and zero-effect plateaus. Three independent assays are usually performed and the mean IC50 is reported.

[2] = system: WM266.4 melanoma cells; test: SRB Cell Proliferation Assay (SRB GI50); type: cell-based; conditions: Homo sapiens, WM 266-4, 144 h, 6 days growth
Procedure: Biological Methods—SRB Cell Proliferation Assay (SRB GI50)
Cultures of WM266.4 melanoma cells are routinely cultured in DMEM/10% foetal bovine serum, at 37° C., in 5% CO2 water saturated atmosphere. Cultures are maintained in exponential growth phase by sub-culturing before having become confluent (3-5 day intervals). Single cell suspensions are prepared by harvesting an 80 cm^2 tissue culture flask with 5 mL commercial trypsin EDTA. After 5 minutes, the detached cells are mixed with 5 mL fully complemented culture medium and centrifugally pelleted (1000 rpm for 7 minutes). After aspirating the supernatant, the cell pellet is re-suspended in 10 mL fresh medium and the cells fully disaggregated by drawing the whole volume up/down 5 times through a 19-gauge needle. The concentration of the cells is determined using a haemocytometer (1/10 dilution). A suitable volume to give at least a 2-fold excess for the number of tests being conducted, typically 100-200 mL, is prepared by diluting the cell suspension to 10,000/mL, and 100 μL/well dispensed into 96 well plates using a programmable 8-channel peristaltic pump, giving 1000 cells/well, leaving column 12 blank. The plates are returned to the incubator for 24 hours to allow the cells to re-attach.
The compounds being tested are prepared at 20 mM in dimethylsulphoxide. Aliquots (200 μL) are diluted into 20 mL culture medium giving 200 μM, and 10 serial dilutions of 3× performed by transferring 5 mL to 10 mL. Aliquots (100 μL) of each dilution are added to the wells, using an 8-channel pipettor, thus performing a final further 2× dilution, and giving doses ranging from 100 μM to 0.005 μM. Column 11 receives plain culture medium only. Each compound is tested in quadruplicate, each replicate being the average of four wells, and two plates per compound.
After a further 6 days growth, the plates are emptied, and the cells are fixed in 10% trichloroacteic acid for 10 minutes on ice. After thorough rinsing in running tap water, the plates are dried, and stained by adding 50 μL of a solution of 0.1% sulphorhodamine-B in 1% acetic acid, for 10 minutes at room temperature. The stain is poured out and the plates thoroughly rinsed under a stream of 1% acetic acid, thus removing unbound stain, and dried. The bound stain is taken into solution by addition of 150 μL Tris buffer pH 8, followed by 10 minutes on a plate-shaker (approximately 500 rpm). The absorbance at 540 nm in each well (being proportional to the number of cells present) is determined using a plate reader.
After averaging the results in rows A-D and E-H, the blank value (row 12) is subtracted, and results expressed as percentage of the untreated value (row 11). […] The GI50 generated by this procedure is the concentration of the drug that produces a percentage control A540 midway between the saturation, and zero-effect plateaus.

[3] = system: pERK; test: Cell Based Phospho-ERK Assay; conditions: 6 h, cells incubated with test compound for 6 hours
Procedure: Biological Methods—Cell Based Phosho-ERK Assay
Compounds were assessed using a cell-based assay which was performed according to the following protocol.
Plate out 16,000 cells/well in 99 μL medium in a 96-well plate.
1. Add 1 μL inhibitor to the cells […].
2. Incubate the cells with test compound for 6 hours at 37° C.
3. Aspirate off the solution from all of the wells.
4. Fixate the cells with 100 μL 4% formaldehyde/0.25% Triton X-100 PBS per well.
5. Incubate the plate for 1 hour at 4° C.
6. Aspirate off the fixing solution and add 300 μL TBS per well.
7. Leave the plate overnight at 4° C.
1. Wash the plate 2× with 200 μL PBS per well.
2. Block with 100 μL 5% dried milk in TBS.
3. Incubate the plate for 20 minutes at 37° C.
4. Wash the plate 2× with 0.1% tween/H2O.
5. Add 50 μL of 3 μg/mL primary antibody pERK (Sigma M8159), diluted in 5% milk powder/TBS, to each well.
6. Incubate the plate for 2 hours at 37° C.
7. Wash the plate 3× with 0.1% tween/H2O.
8. Add 50 μL of 0.45 μg/mL secondary Europium-labelled anti-mouse antibody (Perkin Elmer) to each well.
9. Incubate the plate for 1 hour at 37° C.
10. Wash the plate 3× with 0.1% tween/H2O.
11. Add 100 μL enhancement solution (Perkin Elmer) to each well.
12. Leave the plate for approximately 10 minutes at room temperature before gently shaking the plate.
13. Read Europium Time Resolved Fluorescence in Victor2.
14. Wash the plate 2× with 0.1% tween/H2O.
15. Measure the protein concentration with BCA (Sigma) by adding 200 μL of solution per well.
16. Incubate the plate for 30 minutes at 37° C.
17. Read absorbance levels at 570 nm in a plate reader.
Note that Europium counts are normalised for protein levels by dividing counts by absorbance.
as §1, with “(no cells)” for “(Empty Vector)”

B-RAF, sequence (P15056 whole entry V600E): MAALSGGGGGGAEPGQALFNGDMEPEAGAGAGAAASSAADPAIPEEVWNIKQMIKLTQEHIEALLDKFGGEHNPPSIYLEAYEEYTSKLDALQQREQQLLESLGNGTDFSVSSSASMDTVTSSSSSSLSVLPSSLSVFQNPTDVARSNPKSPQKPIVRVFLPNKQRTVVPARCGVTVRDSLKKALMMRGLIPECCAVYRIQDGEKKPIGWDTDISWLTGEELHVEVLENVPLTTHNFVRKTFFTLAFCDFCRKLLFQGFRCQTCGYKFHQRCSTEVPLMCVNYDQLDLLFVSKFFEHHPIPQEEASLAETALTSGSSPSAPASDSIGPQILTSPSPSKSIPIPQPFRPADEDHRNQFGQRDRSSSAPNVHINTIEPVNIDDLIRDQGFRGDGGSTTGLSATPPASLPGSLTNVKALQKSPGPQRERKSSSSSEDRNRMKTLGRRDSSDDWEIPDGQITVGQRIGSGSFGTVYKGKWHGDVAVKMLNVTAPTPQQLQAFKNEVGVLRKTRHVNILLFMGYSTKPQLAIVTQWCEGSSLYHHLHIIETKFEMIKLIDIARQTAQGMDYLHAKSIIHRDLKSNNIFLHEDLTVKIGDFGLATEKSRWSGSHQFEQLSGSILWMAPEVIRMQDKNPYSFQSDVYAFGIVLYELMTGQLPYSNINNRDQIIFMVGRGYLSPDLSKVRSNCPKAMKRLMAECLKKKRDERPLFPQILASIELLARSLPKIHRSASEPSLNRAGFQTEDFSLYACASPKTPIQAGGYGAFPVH

IC50 [1]: ≤ 1 µM | GI50 [2]: ≤ 10 µM | IC50 [3]: ≤ 10 µM
SMILES: C=CCn1nc(C(C)(C)C)cc1NC(=O)Nc1ccc(Oc2ccnc3[nH]c(=O)cnc23)c2cccnc12 [BB-013]
